Test results from publication PMC8238948, “Potent inhibitors of toxic alpha-synuclein identified via cellular time-resolved FRET biosensors” (NPJ Parkinson's Disease, 2021).
Counter-ions that a name gives are not always drawn.

How the values were obtained:
[1] = test system: SH-SY5Y cells transfected with unlabeled WT αSN; assay: αSN expression levels in SH-SY5Y cells (immunoblot); assay type: cell-based, human; details: 1 μM compound; relative to DMSO
Description: We investigated one potential MOA for compounds RO and DEM in our SH-SY5Y cytotoxicity model. These compounds might rescue αSN-induced cytotoxicity by modulating αSN expression[81],[82]. SH-SY5Y cells transfected with empty-vector or unlabeled WT αSN were treated with DMSO, RO, or DEM at 1 μM concentration. […] This effect may be due to prolonged survival of cells expressing higher levels of αSN, which would be lost in DMSO-treated samples or as a result of shifting monomer:oligomer ratios. Studies have shown that there is a fine balance in αSN expression, where too much can lead to aggregation, but αSN expression can also be neuroprotective[81],[83]–[86].
Supplemental Figure 15. Rescue of αSN-induced cytotoxicity in SH-SY5Y cells is not driven by suppression of αSN expression. One potential MOA for our hit compounds could be reduction of αSN levels, thereby alleviating the αSN induced cytotoxicity. (a) Treatment of SH-SY5Y cells expressing either αSN or […]
DMSO for both RO and DEM. (b) Quantification of a via densitometry analysis.
(1 picture or pasted object on this page, not shown here)

[2] = test system: inter-protomeric and intra-protomeric αSN FRET biosensors in HEK293 cells; assay: Pilot HTS of the LOPAC library, fluorescence lifetime (FLT) of cellular αSN FRET biosensors; assay type: cell-based, human; details: 10 µM compound, 90 min; hit = FLT change >5 SD
Description: Prior to each pilot HTS, FLT and emission spectrum were measured to verify signal level, basal FRET, coefficient of variance (CV), and similarity index. For each HTS, cells were dispensed into compound plates—1536-well (10 µL/well)—and incubated with the compounds (10 µM) or dimethyl sulfoxide (DMSO; 1%) for 90 min. FLT measurements were acquired with the FLT-PR. After deconvolving the instrument response function, a single exponential fit was used to determine the FLT for both the αSN cellular FRET biosensor (τDA) and the donor-only control biosensor (τD). FRET efficiency was determined by Eq. 1. CV was determined from control plates (N = 384 wells).
Fluorescent compounds (FC) were flagged using a spectral similarity index filter, which evaluates the ratio of intensity from two bandwidths that span the donor emission spectrum and are excluded as potential false positives[45],[46],[49],[51],[66]. […] Compounds that changed FLT by >5 standard deviations (SD) were considered hits (Fig. 5, red data points).
On each day of screening, the compound plates were equilibrated to room temperature (RT; 25 °C). The cells were harvested from the 100-mm plates by incubating with TrypLE (Invitrogen) for 2 min, washed three times in PBS by centrifugation at 200 × g, and filtered using 70-μm cell strainers (BD Falcon). Cell viability prior to screen was assessed using a trypan blue assay and confirmed to be >80%. Cells were diluted to 1.5E6 cells/mL. Expression of GFP-αSN and the αSN biosensors were confirmed by fluorescence microscopy prior to each screen (EvosFL-Auto microscope, Thermo Fisher Scientific, USA). During screening, cells (50 μL/well for 384-well; 10 μL/well for 1536-well) were dispensed by a Multidrop Combi liquid dispenser (Thermo, Pittsburg, PA, USA) into the assay plates containing the compounds and allowed to incubate at RT for 90 min before recording with the FLT-PR or SUPR (both instruments manufactured by Fluorescence Innovations Inc., both owned and provided by Photonic Pharma LLC), as described previously[46].
Interfering compounds were flagged as potential false positives by a set of stringent FC filters based on spectral analysis of each well from the LOPAC screen[45],[46]. After removal of FCs, a histogram of the FLT distribution from all compounds in the screen was plotted and fit to a Gaussian curve to obtain the mean (µ) and SD (σ). A hit was defined as a compound that attenuated the FLT efficiency by >5σ relative to the mean µ (Supplementary Fig. 12).

labeled αSN (monomeric) [3] = molecular target: T1, labeled αSN (monomeric) (Homo sapiens, UniProt P37840, E130C/T54C); assay: smFRET measurements of αSN monomer conformation; details: αSN labeled at 54-130C; +20μM compound; mean ± standard deviation
T1 construct: made in house; host or cells: Escherichia coli BL21(DE3)
Description: (§1) SmFRET experiments were performed using two different labeled αSN constructs (residues 9–72 and residues 54–130) that report on intra-monomeric FRET (e.g., monomer conformation) of the N-terminal and C-terminal domains of αSN. […] We were not able to evaluate RO with smFRET, due to interactions of RO with the AlexaFluor-594 label.
(§2) Single-molecule FRET measurements were carried out using ~30 pM of labeled αSN in 20 mM Tris pH 7.4 and 50 mM NaCl in 8-chambered Nunc coverslips (ThermoFisher) passivated with poly(ethylene glycol) poly(L-lysine) to reduce protein adsorption to the chambers. Measurements were made on a MicroTime 200 time-resolved confocal microscope (Picoquant) as described previously. Laser power was adjusted to ~30 μW before sample illumination. Fluorescence emission was collected through the objective and passed through a 150-μm diameter pinhole. Photons were separated by an HQ585LP dichroic in combination with ET525/50M and HQ600LP filters and detected by avalanche photodiodes. Photon traces were collected in 1-ms time bins for 1 h. A cutoff of 25 counts/ms was applied to discriminate between bursts arising from fluorescently labeled protein and background noise. The FRET efficiency (Eeff) was calculated using the SymphoTime 64 software. SmFRET histograms were fit with Gaussian distributions to determine the peak Eeff values. Each measurement was carried out three times and mean Eeff values are the average and SD of these measurements (Supplementary Table 2). Alignment of instrument and analysis were verified using smFRET reference standards consisting of 10, 14, and 18 base pair dsDNA labeled with Alexa 488 and Alex 594 with their 5’ and 3’ ends.

labeled αSN (monomeric) [4] = molecular target: T2, labeled αSN (monomeric) (Homo sapiens, UniProt P37840, S9C/T72C); assay: smFRET measurements of αSN monomer conformation; details: αSN labeled at 9C-72C; +20μM compound; mean ± standard deviation
T2 construct: made in house; host or cells: Escherichia coli BL21(DE3)
Description: as §1, §2

| Eeff (smFRET efficiency) (labeled αSN (monomeric) [3]) | Eeff (smFRET efficiency) (labeled αSN (monomeric) [4]) | Compound | total αSN expression levels [1] | identified as hit in the LOPAC screen [2] |
| --- | --- | --- | --- | --- |
| – | – | Nc1ccc(-c2nc3ccc(-c4nc5ccc(N)cc5[nH]4)cc3[nH]2)cc1 [RO, Ro 90–7501] | no change | – |
| 0.60 ± 0.008 | 0.55 ± 0.005 | CN(C)[C@@H]1C(O)=C(C(N)=O)C(=O)[C@@]2(O)C(O)=C3C(=O)c4c(O)ccc(Cl)c4[C@@H](O)[C@H]3C[C@@H]12 [DEM, Demeclocycline HCl] | no change | identified |
| 0.58 ± 0.005 | 0.54 ± 0.013 | COC(=O)C1=C(C)NC(C)=C([N+](=O)[O-])C1c1ccccc1C(F)(F)F (racemic) [BAY, (±)-Bay K 8644] | – | – |
